Data taken from patent publication US20070021451A1, “Method for preventing or treating neurologic damage after spinal cord injury” (HAMAMATSU UNIVERSITY SCHOOL OF MEDICINE, priority 2005, published 2007).

System: Rabbit Model of Spinal Cord Ischemia
Assay: Neurologic assessment: hind-limb motor function by modified Tarlov scale
Assay type: in vivo, New Zealand White rabbits
Procedure: Twenty-six male New Zealand White rabbits weighting 2.2 to 3.0 kg were used in this experiment. Spinal cord ischemia was induced by occluding the abdominal aorta with […] for 20 minutes just distal to the renal arteries. Surgical preparation was conducted according to the method described in the literature, Terada H. et. al., J. Thorac. Cardiovasc. Surg. 2001; 122: 979-85. A 24-gauge venous catheter was placed in the marginal ear vein for drug administration. The rabbits were anesthetized with intravenous sodium pentobarbital (25 mg/kg) and allowed to breathe spontaneously. Lidocaine (0.5%) was administered at the site of the skin incision as local anesthesia. The left common carotid artery was cannulated with a 24-gauge catheter for monitoring the arterial pressure. Core body temperature was continuously monitored with a rectal probe and was maintained at 38.5° C. with the aid of heating lamp. The infrarenal abdominal aorta was exposed through a transperitoneal approach. After systemic heparinization (200 U/kg), spinal cord ischemia was induced by occluding the abdominal aorta with […] for 20 minutes just distal to the renal arteries and just above the aortic bifurcation. Then, the […] released, and the flank was closed. […] The rabbits were assigned randomly to 1 of the 4 groups and subjected to the treatment of (1) above in the following manner. The sham group (n=3) underwent the same operation without aortic occlusion. The control group (n=7) received saline (1 ml) intravenously 15 minutes before aortic occlusion. NS-7 (1 mg/kg) was administered intravenously as a bolus dose 15 minutes before aortic occlusion in group A (n=8) or just after releasing the […] onset of reperfusion) in group B (n=8). Hind-limb motor function was scored 24 and 48 hours after the operation by the modified Tarlov scale.

[1] = Group A (n = 8, NS-7 1 mg/kg i.v. 15 min before aortic occlusion), 24 h after operation
[2] = Group A (n = 8, NS-7 1 mg/kg i.v. 15 min before aortic occlusion), 48 h after operation
[3] = Group B (n = 8, NS-7 1 mg/kg i.v. at onset of reperfusion), 24 h after operation
[4] = Group B (n = 8, NS-7 1 mg/kg i.v. at onset of reperfusion), 48 h after operation

## Cc1cc(-c2ccc(F)cc2)cc(OCCCCCN2CCCCC2)n1.Cl [NS-7, 4-(4-Fluorophenyl)-2-methyl-6-(5-piperidinopentyloxy)pyridine hydrochloride]
[1]
  Number of rabbits with Tarlov score 0: 0
  Number of rabbits with Tarlov score 1: 0
  Number of rabbits with Tarlov score 2: 0
  Number of rabbits with Tarlov score 3: 2
  Number of rabbits with Tarlov score 4: 3
  Number of rabbits with Tarlov score 5: 3
[2]
  Number of rabbits with Tarlov score 0: 0
  Number of rabbits with Tarlov score 1: 0
  Number of rabbits with Tarlov score 2: 1
  Number of rabbits with Tarlov score 3: 2
  Number of rabbits with Tarlov score 4: 4
  Number of rabbits with Tarlov score 5: 1
[3]
  Number of rabbits with Tarlov score 0: 0
  Number of rabbits with Tarlov score 1: 0
  Number of rabbits with Tarlov score 2: 0
  Number of rabbits with Tarlov score 3: 2
  Number of rabbits with Tarlov score 4: 1
  Number of rabbits with Tarlov score 5: 5
[4]
  Number of rabbits with Tarlov score 0: 0
  Number of rabbits with Tarlov score 1: 0
  Number of rabbits with Tarlov score 2: 1
  Number of rabbits with Tarlov score 3: 2
  Number of rabbits with Tarlov score 4: 1
  Number of rabbits with Tarlov score 5: 4
Group A and B, 24 hours and 48 hours after the operation, P<0.01 vs control
  Recovery of motor function in the hind limbs: remarkably enhanced
